Test results: ChEMBL document CHEMBL3739349, “Cytotoxic Clerodane Diterpenoids from the Leaves of Casearia grewiifolia” (J Nat Prod, 2015)

Assays:
KB = experiment: Cytotoxicity against human KB cells assessed as growth inhibition after 72 hrs by neutral red staining based colorimetric assay; type: functional, cell-based
HepG2 = experiment: Cytotoxicity against human HepG2 cells assessed as growth inhibition after 72 hrs by neutral red staining based colorimetric assay; type: functional, cell-based; conditions: HepG2, 72 h
Lu1 = experiment: Cytotoxicity against human Lu1 cells assessed as growth inhibition after 72 hrs by neutral red staining based colorimetric assay; type: functional, cell-based; conditions: Lu1, 72 h
MCF7 = experiment: Cytotoxicity against human MCF7 cells assessed as growth inhibition after 72 hrs by neutral red staining based colorimetric assay; type: functional, cell-based; conditions: MCF7, 72 h
[1] = Cytotoxicity against mouse NIH/3T3 cells assessed as growth inhibition after 72 hrs by neutral red staining based colorimetric assay; type: cell-based; conditions: NIH3T3, 72 h
[2] = Cytotoxicity against mouse NIH/3T3 cells assessed as growth inhibition at 100 uM after 72 hrs by neutral red staining based colorimetric assay; type: cell-based; conditions: nih3t3, 72 h

Structure (SMILES)	IC50 (KB) [nM]	IC50 (HepG2) [nM]	IC50 (Lu1) [nM]	IC50 (MCF7) [nM]	IC50 [1] [nM]	Activity [2]
C=CC(=C)CC[C@]1(C)[C@H](C)[C@@H](OC(=O)/C=C/c2ccc(O)cc2)[C@H](O)[C@@]23C(=C[C@H](OC(=O)CCC)C[C@@H]12)[C@H](OC)O[C@H]3OC	6200	7000	> 10000	> 10000	> 10000	Non-toxic
C=CC(=C)CC[C@]1(C)[C@H](C)[C@@H](OC(=O)/C=C/c2ccc(O)cc2)[C@H](O)[C@@]23C(=C[C@H](OC(=O)CC(C)C)C[C@@H]12)[C@H](OC)O[C@H]3OC(C)=O	> 10000	> 10000	> 10000	> 10000	> 10000	
C=CC(=C)CC[C@]1(C)[C@H](C)C[C@H](O)[C@@]23C(=C[C@H](OC(=O)CCC)C[C@@H]12)[C@@H](OC(C)=O)O[C@H]3OC(C)=O [CASEANIGRESCEN D]	500	300	900	800	300	
Cc1c2ccncc2c(C)c2c1[nH]c1ccccc12 [ELLIPTECINE]	1400	1500	1200	900	1300	
